Assay results: US20050239738A1, “Genetic inhibition of epidermal growth factor receptor function and carcinoma cell radiosensitization” (priority 2000, published 2005)
≈ marks a conversion by molar mass, not a printed value.

How the values were obtained:
Type in all cases: cell-based, human
EGFR-CD533 expression = assay: Doxycycline induction of EGFR-CD533 mRNA and protein (RNase protection, Northern, 35S-Met labeling)
Description: The kinetics of EGFR-CD533 induction and its decay after Dox removal were monitored by metabolic labeling with ^35S-Met as described in the text.

MAPK = MAPK immune complex kinase assay
Description: (§1) Dox at 1 μg/ml was added 48 h prior to radiation exposure and cell harvesting with a medium change to RPMI/0.5% FBS with or without Dox for the final 24 h. This medium was replaced by RPMI/0.5% FBS 2 h prior to treatment.
(§2) Immunoprecipitation and Western analysis. For immunochemical analyses, cells frozen at −20° C. were lysed in ice-cold lysis buffer, 25 mM β-glycerophosphate, pH 7.4, 25 mM Tris, pH 7.4, 10% (v/v) glycerol, 1.5 mM EGTA, 0.5 mM EDTA, 1% Triton X-100, 1 mM Na-orthovanadate, 1 mM Na-pyrophosphate, 10 μg/ml aprotinin, 10 μg/ml leupeptin, 1 μm benzamidine, 100 μg/ml PMSF. […] Lysates were incubated with Ab at 4° C. for 3 h, the agarose-Ab immunoprecipitates were washed twice in lysis buffer, once in lysis buffer containing 0.1% Triton X-100, and once in 1× kinase buffer, 25 mM β-glycerophosphate, pH 7.4, 15 mm MgCl2. For Western blot analyses, equal amounts of cellular protein were separated by SDS-PAGE, electroblotted to nitrocellulose, probed with specific Abs against c-Jun protein and c-Jun 0phosphorylated at Ser-63, followed by chemilumescence detection. Expression of Tam 67 in MDA-TR15-EGFR-CD533 cells infected with recombinant adenovirus was determined by Western analysis using a c-Jun Ab specific for the COOH-terminus.
(§3) Immune complex kinase assays.
(§4) Aliquots of the assay mixture were placed on P81 paper and non-specific binding of [^32P]-γ-ATP removed by extensive washing in 180 mM phosphoric acid. Incorporation of ^32P into bound MBP substrate was measured by liquid scintillation spectroscopy (Beckman Instruments Inc, Schaumburg, Ill., USA).

JNK1 = JNK1 immune complex kinase assay
Description: as §2, §3, §4

c-Jun = assay: Western blot of c-Jun protein and Ser-63 phosphorylated c-Jun
Description: Immunoprecipitation and Western analysis. For immunochemical analyses, cells frozen at −20° C. were lysed in ice-cold lysis buffer, 25 mM β-glycerophosphate, pH 7.4, 25 mM Tris, pH 7.4, 10% (v/v) glycerol, 1.5 mM EGTA, 0.5 mM EDTA, 1% Triton X-100, 1 mM Na-orthovanadate, 1 mM Na-pyrophosphate, 10 μg/ml aprotinin, 10 μg/ml leupeptin, 1 μm benzamidine, 100 μg/ml PMSF. Insoluble material was removed by centrifugation at 14 000 g for 10 min, and the clarified protein lysates were divided equally for immunoprecipitation with antibodies against JNKI and MAPK using established techniques (Boulton et al., 1990). Lysates were incubated with Ab at 4° C. for 3 h, the agarose-Ab immunoprecipitates were washed twice in lysis buffer, once in lysis buffer containing 0.1% Triton X-100, and once in 1× kinase buffer, 25 mM β-glycerophosphate, pH 7.4, 15 mm MgCl2. For Western blot analyses, equal amounts of cellular protein were separated by SDS-PAGE, electroblotted to nitrocellulose, probed with specific Abs against c-Jun protein and c-Jun 0phosphorylated at Ser-63, followed by chemilumescence detection. Expression of Tam 67 in MDA-TR15-EGFR-CD533 cells infected with recombinant adenovirus was determined by Western analysis using a c-Jun Ab specific for the COOH-terminus.

[1] = system: MDA-TR15-EGFR-CD533 cells; assay: TUNEL assay for apoptosis
Description: TUNEL assay for apoptosis. Cells were placed at a density of 2×10^4 cells into dual well slides and allowed to adhere overnight in RPMI/5FCS. Cells were then exposed, prior to irradiation, for 48 h to Dox or control solute for induction of EGFR-CD533. PD98059 at a final concentration of 10 μM was added 2 h prior to irradiation at 2 Gy. Cells were infected with recombinant Ad-TAM67 for expression of Tam67 for 48 h prior to irradiation. […] Slides were stored at −20° C. until examination by fluorescence microscopy using a fluorescein filter.

[2] = system: MDA-TR15-EGFR-CD533 cells; assay: Repeated radiation exposure (5 x 2 Gy) MTT cell growth assay
Description: MDA-TR15-EGFR-CD533 cells were seeded in RPMI/5% FBS at 1000 or 2000 cells/well in 96-well tissue culture plates for control and radiation experiments, respectively. After cell attachment overnight, 50% of the cultures were exposed to Dox at 1 μg/ml. Within 24 h of Dox exposure, drug-exposed and control cultures were irradiated once-daily with 2 Gy for 5 consecutive days.
Growth rate analysis. For irradiation and control conditions, 1000 and 500 cells per well of 24-well plates were seeded, respectively. Cells were maintained in RPMI/5FCS without media change throughout the period of the experiment. After 24 h of seeding, 50% of the plates were treated with 10 μM PD98059 for 2 h while negative controls were exposed to equivalent DMSO concentrations of 1 μl/ml in RPMI/5FCS. This was followed by 2 Gy daily radiation exposures for 5 consecutive days; control cells were sham irradiated. […] Growth rates were quantified relative to absorbance at 540 nm on day 1.

EGFR-WT = EGFR-WT Tyr autophosphorylation, immunoprecipitation/Western blot; settings: 2 ng/ml EGF, MDA-TR15-EGFR-CD533 cells without Dox
Description: as §1

[3] = MCF-TR5-EGFR-CD533 cells, 48 h Dox exposure
[4] = MDA-TR15-EGFR-CD533 cells, 48 h Dox exposure
[5] = parental MDA-TR15 cells, Dox 48 h
[6] = MDA-TR15-EGFR-CD533 cells, basal activity before irradiation, after pretreatment

C[C@H]1c2cccc(O)c2C(=O)C2=C(O)[C@]3(O)C(=O)C(C(N)=O)=C(O)[C@@H](N(C)C)[C@@H]3[C@@H](O)[C@@H]21 [Dox, doxycycline]
EGFR-CD533 induced (EGFR-CD533 expression; 1.0 μg/ml Dox, at 24 h, 35S-Met incorporation, MDA-TR15-EGFR-CD533 cells): > 90%
EC50 (EGFR-CD533 expression; Homo sapiens, MDA-TR15-EGFR-CD533 cells, 48 h exposure, 0.01-1.0 μg/ml, read-out: Dox concentration giving half maximal response of EGFR-CD533 induction): 0.1 µg/mL (≈ 0.225 µM)
increase in EGFR-CD533 mRNA levels (EGFR-CD533 expression; [3]): 5 fold
induction of the 110 kD EGFR-CD533 truncated receptor (EGFR-CD533 expression; [3]): greater than 20 fold
increase in EGFR-CD533 mRNA levels (EGFR-CD533 expression; [4]): greater than 30 fold
induction of EGFR-CD533 at the protein level (EGFR-CD533 expression; [4]): greater than 50 fold
MAPK activity (MAPK; [5]): 16000±1600 c.p.m.
JNK1 activity at time=0 (JNK1; [5]): 3500±300 c.p.m.

COc1cccc(-c2cc(=O)c3ccccc3o2)c1N [PD98059]
inhibition of radiation-induced MAPK activation (MAPK; 10 μm PD98059 pretreatment, 2 Gy, MDA-TR15-EGFR-CD533 cells): > 70%
MAPK activity at time=0 (MAPK; [6]): 16900±575 c.p.m.
transient activation of JNK1 without irradiation (JNK1; 10 μM PD98059, between 5 and 25 min, no radiation): 1.35 (±0.02) fold
radiation-induced immediate JNK1 activation (JNK1; 2 Gy, early time points (within 10 min), MDA-TR15-EGFR-CD533 cells): 3.9 (±0.1) fold
JNK1 activity at time=0 (JNK1; [6]): 3100±200 c.p.m.
c-Jun protein levels relative to untreated cells (c-Jun; 10 μM PD98059 2 h): more than twofold reduction
increase in c-Jun Ser-63 phosphorylation relative to c-Jun protein level (c-Jun; 10 μM PD98059 pretreatment, 10 min after 2 Gy): 41 fold
stimulation of c-Jun phosphorylation under MEK1/2 inhibition compared to radiation alone (c-Jun; PD98059 + 2 Gy, sustained up to 60 min): fivefold greater
apoptosis rate after irradiation ([1]; TUNEL 24 h after single 2 Gy): 6.3 (±0.1) %
basal apoptosis rate ([1]; TUNEL, without irradiation): 3.7 (±0.1) %
increase in basal apoptosis rate ([1]; TUNEL, without irradiation, relative to control): ~20%
lower cell numbers on day 7 relative to irradiated control cells ([2]; 5 daily 2 Gy exposures, MTT, day 7 of growth period): 5.0 (±0.03) fold
inhibition of cell growth / decrease in cell numbers without irradiation ([2]; un-irradiated, day 7, MTT): 25%

EGF: epidermal growth factor, natural ligand of EGFR
activation of EGFR-WT Tyr phosphorylation (EGFR-WT): 9.8 fold
